Source: ChEMBL document CHEMBL1201862, “PubChem BioAssay data set” (2004)
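Briefly, cells in 96-well plates were exposed to five compound concentrations for 48 h, and endpoints were estimated by linear interpolation. The concentration for 50% growth inhibition is given as GI50.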 Activity calls are given as the source filed them. Cut-off read from the data, not from the text of the source: active = GI50 up to about 1.1 µM and inactive = higher.

Key:
Assay in all cases: DTP human tumour cell line panel, 48 h
SK-MEL-2 = system: SK-MEL-2
TK-10 = system: TK-10
U-251 = system: U-251
SF-268 = system: SF-268
HL-60 = system: HL-60
SK-OV-3 = system: SK-OV-3
NCI-H23 = system: NCI-H23
OVCAR-8 = system: OVCAR-8
NCI/ADR-RES = system: NCI/ADR-RES
T47D = system: T47D
OVCAR-3 = system: OVCAR-3
OVCAR-5 = system: OVCAR-5
RPMI-8226 = system: RPMI-8226
SN12C = system: SN12C
RXF 393 = system: RXF 393
EKVX = system: EKVX
SF-539 = system: SF-539
Malme-3M = system: Malme-3M
LOX IMVI = system: LOX IMVI
HCT-116 = system: HCT-116
MCF7 = system: MCF7
UACC-257 = system: UACC-257
SNB-75 = system: SNB-75
COLO 205 = system: COLO 205
M14 = system: M14
PC-3 = system: PC-3
MDA-MB-435 = system: MDA-MB-435
HCT-15 = system: HCT-15
NCI-H226 = system: NCI-H226
SK-MEL-5 = system: SK-MEL-5
UACC-62 = system: UACC-62
IGROV-1 = system: IGROV-1
MDA-MB-231 = system: MDA-MB-231
Hs-578T = system: Hs-578T
HCC 2998 = system: HCC 2998
786-0 = system: 786-0
UO-31 = system: UO-31
MOLT-4 = system: MOLT-4
MDA-N = system: MDA-N
CCRF-CEM = system: CCRF-CEM
OVCAR-4 = system: OVCAR-4
KM12 = system: KM12
SK-MEL-28 = system: SK-MEL-28
BT-549 = system: BT-549
DU-145 = system: DU-145
SW-620 = system: SW-620
SNB-19 = system: SNB-19
SF-295 = system: SF-295
ACHN = system: ACHN
HOP-62 = system: HOP-62
A549 = system: A549
CAKI-1 = system: CAKI-1
NCI-H460 = system: NCI-H460
NCI-H522 = system: NCI-H522
HT-29 = system: HT-29
K562 = system: K562
HOP-92 = system: HOP-92
A498 = system: A498

Compound: O=C(NC(=O)c1ccccc1)OC(c1ccccc1)C1CO1 (stereo not drawn)
- GI50 (SK-MEL-2): > 100 µM (inactive)
- GI50 (TK-10): > 100 µM (inactive)
- GI50 (U-251): > 100 µM (inactive)
- GI50 (SF-268): > 100 µM (inactive)
- GI50 (HL-60): > 100 µM (inactive)
- GI50 (SK-OV-3): > 100 µM (inactive)
- GI50 (NCI-H23): > 100 µM (inactive)
- GI50 (OVCAR-8): > 100 µM (inactive)
- GI50 (NCI/ADR-RES): > 100 µM (inactive)
- GI50 (T47D): > 100 µM (inactive)
- GI50 (OVCAR-3): > 100 µM (inactive)
- GI50 (OVCAR-5): > 100 µM (inactive)
- GI50 (RPMI-8226): > 100 µM (inactive)
- GI50 (SN12C): > 100 µM (inactive)
- GI50 (RXF 393): > 100 µM (inactive)
- GI50 (EKVX): > 100 µM (inactive)
- GI50 (SF-539): > 100 µM (inactive)
- GI50 (Malme-3M): > 100 µM (inactive)
- GI50 (LOX IMVI): > 100 µM (inactive)
- GI50 (HCT-116): > 100 µM (inactive)
- GI50 (MCF7): > 100 µM (inactive)
- GI50 (UACC-257): > 100 µM (inactive)
- GI50 (SNB-75): > 100 µM (inactive)
- GI50 (COLO 205): > 100 µM (inactive)
- GI50 (M14): > 100 µM (inactive)
- GI50 (PC-3): > 100 µM (inactive)
- GI50 (MDA-MB-435): > 100 µM (inactive)
- GI50 (HCT-15): > 100 µM
- GI50 (NCI-H226): > 100 µM (inactive)
- GI50 (SK-MEL-5): > 100 µM (inactive)
- GI50 (UACC-62): > 100 µM (inactive)
- GI50 (IGROV-1): > 100 µM (inactive)
- GI50 (MDA-MB-231): > 100 µM (inactive)
- GI50 (Hs-578T): > 100 µM (inactive)
- GI50 (HCC 2998): > 100 µM (inactive)
- GI50 (786-0): > 100 µM (inactive)
- GI50 (UO-31): > 100 µM (inactive)
- GI50 (MOLT-4): > 100 µM (inactive)
- GI50 (MDA-N): > 100 µM (inactive)
- GI50 (CCRF-CEM): > 100 µM (inactive)
- GI50 (OVCAR-4): > 100 µM (inactive)
- GI50 (KM12): > 100 µM (inactive)
- GI50 (SK-MEL-28): > 100 µM (inactive)
- GI50 (BT-549): > 100 µM (inactive)
- GI50 (DU-145): > 100 µM (inactive)
- GI50 (SW-620): > 100 µM (inactive)
- GI50 (SNB-19): > 100 µM (inactive)
- GI50 (SF-295): > 100 µM (inactive)
- GI50 (ACHN): > 100 µM (inactive)
- GI50 (HOP-62): > 100 µM (inactive)
- GI50 (A549): > 100 µM (inactive)
- GI50 (CAKI-1): > 100 µM (inactive)
- GI50 (NCI-H460): > 100 µM (inactive)
- GI50 (NCI-H522): > 100 µM (inactive)
- GI50 (HT-29): > 100 µM (inactive)
- GI50 (K562): > 100 µM (inactive)

Compound: N/C(=N\NC(=O)c1nc2ccccc2s1)c1ccccn1
- GI50 (SK-MEL-2): 19.5 µM (inactive)
- GI50 (TK-10): 7.8 µM (inactive)
- GI50 (U-251): 4.79 µM (inactive)
- GI50 (SF-268): 6.87 µM (inactive)
- GI50 (HL-60): 0.452 µM (active)
- GI50 (SK-OV-3): 9.79 µM (inactive)
- GI50 (NCI-H23): 9.86 µM (inactive)
- GI50 (OVCAR-8): 5.33 µM (inactive)
- GI50 (HOP-92): > 34 µM (inactive)
- GI50 (NCI/ADR-RES): 1.11 µM (active)
- GI50 (T47D): 10.6 µM (inactive)
- GI50 (OVCAR-3): 3.92 µM (inactive)
- GI50 (OVCAR-5): 5.89 µM (inactive)
- GI50 (RPMI-8226): 2.46 µM (inactive)
- GI50 (A498): 8.34 µM (inactive)
- GI50 (SN12C): 1.61 µM (inactive)
- GI50 (RXF 393): 7.96 µM (inactive)
- GI50 (EKVX): 3.68 µM (inactive)
- GI50 (SF-539): 3.59 µM (inactive)
- GI50 (Malme-3M): 30 µM (inactive)
- GI50 (LOX IMVI): 4.93 µM (inactive)
- GI50 (HCT-116): 3.28 µM (inactive)
- GI50 (MCF7): 4.39 µM (inactive)
- GI50 (UACC-257): 15.6 µM (inactive)
- GI50 (SNB-75): 7.74 µM (inactive)
- GI50 (COLO 205): 4.73 µM (inactive)
- GI50 (M14): 3.01 µM (inactive)
- GI50 (PC-3): 9.31 µM (inactive)
- GI50 (MDA-MB-435): 7.1 µM (inactive)
- GI50 (HCT-15): 2.56 µM
- GI50 (SK-MEL-5): 4.24 µM (inactive)
- GI50 (UACC-62): 3.95 µM (inactive)
- GI50 (IGROV-1): 12.8 µM (inactive)
- GI50 (MDA-MB-231): 14 µM (inactive)
- GI50 (Hs-578T): > 100 µM (inactive)
- GI50 (HCC 2998): 8.17 µM (inactive)
- GI50 (786-0): 4.33 µM (inactive)
- GI50 (UO-31): 2.26 µM (inactive)
- GI50 (MOLT-4): 1.29 µM (inactive)
- GI50 (MDA-N): 11.7 µM (inactive)
- GI50 (CCRF-CEM): 2.42 µM (inactive)
- GI50 (OVCAR-4): 0.706 µM (active)
- GI50 (KM12): 8.79 µM (inactive)
- GI50 (SK-MEL-28): 43.2 µM (inactive)
- GI50 (BT-549): 31.3 µM (inactive)
- GI50 (DU-145): 4.27 µM (inactive)
- GI50 (SW-620): 6.82 µM (inactive)
- GI50 (SNB-19): 16 µM (inactive)
- GI50 (SF-295): 3.83 µM (inactive)
- GI50 (ACHN): 2.87 µM (inactive)
- GI50 (HOP-62): 10.3 µM (inactive)
- GI50 (A549): 3.19 µM (inactive)
- GI50 (CAKI-1): 1.55 µM (inactive)
- GI50 (NCI-H460): 2.85 µM (inactive)
- GI50 (NCI-H522): 13.8 µM (inactive)
- GI50 (HT-29): 4.08 µM (inactive)
- GI50 (K562): 4.5 µM (inactive)
